Literature values in patent US20240058331A1, “COMBINATION THERAPIES FOR TREATMENT OF CIRRHOSIS WITH PORTAL HYPERTENSION” (priority 2022, published 2024).

Tests used:
[1] = sedation for HVPG assessment
ETB = molecular target: T1, ETB (Homo sapiens, UniProt P24530); conditions: up to 50 mM
T1 sequence (P24530 27-442): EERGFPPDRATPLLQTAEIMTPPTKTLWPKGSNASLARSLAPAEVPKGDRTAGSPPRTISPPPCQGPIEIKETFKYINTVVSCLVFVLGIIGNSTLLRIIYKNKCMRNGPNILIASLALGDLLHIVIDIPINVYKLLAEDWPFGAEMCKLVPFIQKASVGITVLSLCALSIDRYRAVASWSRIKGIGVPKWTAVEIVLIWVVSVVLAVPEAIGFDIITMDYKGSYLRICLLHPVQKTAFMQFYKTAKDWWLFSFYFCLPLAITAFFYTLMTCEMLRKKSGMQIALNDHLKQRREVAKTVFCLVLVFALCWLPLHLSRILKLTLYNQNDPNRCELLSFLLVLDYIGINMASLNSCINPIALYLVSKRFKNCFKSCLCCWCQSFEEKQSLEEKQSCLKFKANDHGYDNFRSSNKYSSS

[2] = moderate hepatic impairment vs healthy control participants; expected
[3] = unlikely to be clinically relevant with standard midazolam dosing

## Cc1ncc2n1-c1ccc(Cl)cc1C(c1ccccc1F)=NC2 [Midazolam]
[1]
  influence on HVPG: does not influence HVPG

## COc1nc(C)cnc1NS(=O)(=O)c1cccnc1-c1ccc(-c2nnco2)cc1 [Zibotentan]
ETB
  effect at the ETB: no effect
[2]
  exposure, times higher in participants with moderate hepatic impairment compared to healthy control participants: 1.45 times
[3]
  increase in midazolam exposure: 20%

## CCOc1ccc(Cc2cc([C@@H]3O[C@H](CO)[C@@H](O)[C@H](O)[C@H]3O)ccc2Cl)cc1 [Dapagliflozin]
10 mg once daily, chronic kidney disease (DAPA-CKD) and heart failure (DAPA HF) populations
  safety or tolerability signals in participants with renal impairment: did not lead to any unique safety or tolerability signals
Doses up to 100 mg for 14 days
  tolerability in healthy volunteers: tolerable
